From paper PMC5400099, “5-Hydroxyethyl-3-tetradecanoyltetramic acid represents a novel treatment for intravascular catheter infections due to Staphylococcus aureus” (Journal of Antimicrobial Chemotherapy, 2016)
pIC50, pKd: −log10 of the molar value. Converted amounts (≈) assume the structure as drawn. “And” between values parts separate entries of the source, which are not always exact repeats. Identical values can stand only once. Like-named read-outs stand apart in the source and are kept apart here.

Experiments:
S. aureus [1] = system: S. aureus; design: method as in PMID 24592914; details: cited from earlier work; for Effect on frequency and severity of arthritis: murine S. aureus arthritis model
S. aureus [2] = system: S. aureus; design: method as in PMID 15623555, PMID 19807189; details: sub-growth inhibitory concentrations; cited from earlier work
S. aureus biofilms [3] = system: S. aureus biofilms; design: method as in PMID 19807189; details: cited from earlier work
staphylococcal membrane = system: staphylococcal membrane; design: method as in PMID 24592914; details: binding to the staphylococcal membrane, single site model; cited from earlier work
[4] = system: MRSA (USA300 JE2 and BH1CC) and MSSA (SH1000 and BH48) strains; test: MIC by broth microdilution, MRSA and MSSA strains; type: cell-based, Staphylococcus aureus; details: MRSA and MSSA strains investigated
Method: (§1) Community-acquired MRSA (CA-MRSA) strain USA300, its isogenic agr mutant,[17] the hospital-acquired MRSA (HA-MRSA) strain BH1CC,[18] the HA-MSSA strain BH48[19] and the MSSA strain SH1000[20] were cultured in Mueller–Hinton broth for susceptibility testing or in RPMI-1640 (Gibco) for biofilm formation. For the rat jugular vein catheter infection model, the S. aureus strain USA300 (LAC) lux[21] was used.
(§2) 5HE-C14-TMA and C14-TOA were synthesized as described previously[9] and C14-TTA as described in the Supplementary data available at JAC Online. Stock solutions of the compounds in DMSO at 10–50 mM were further diluted into tissue culture media or sodium chloride for the in vivo experiments. A DMSO solvent control was used in all in vitro experiments. The following antibiotics were used: vancomycin (Vancocin; Flynn Pharma Ltd., Republic of Ireland), daptomycin (Cubicin; Novartis, UK), gentamicin (Hospira, UK) and tigecycline (Tygacil; Pfizer Inc.). MICs were determined by broth microdilution in Mueller–Hinton broth, as recommended by the CLSI.

S. aureus strain BH48 = test: MIC by broth microdilution (CLSI), strain BH48; type: cell-based; details: Staphylococcus aureus; BH48 (MSSA), Mueller–Hinton broth
Method: as §1, §2

Haemolysis assay = type: cell-based; details: red blood cells; human RBC; read-out: CC50 (haemolytic activity)
Method: Human blood containing EDTA (1.6 g/L) was centrifuged at 1000 g for 5 min. Red blood cells (RBC) were washed twice with PBS, diluted 2-fold and incubated with compounds or Triton X100 (positive control) at 0.5% (v/v). A570 was determined to quantify haemolysis. IC50s were derived from the corresponding dose–response curves.

[5] = system: agr quorum sensing system; design: method as in PMID 24592914; details: S. aureus; cited from earlier work
S. aureus strain SH1000 = test: MIC by broth microdilution (CLSI), strain SH1000; type: cell-based; details: Staphylococcus aureus; SH1000 (MSSA), Mueller–Hinton broth
Method: as §1, §2

Iron chelation = type: physicochemical; details: data not shown
S. aureus biofilms [6] = test: Biofilm susceptibility, resazurin-conversion assay on plasma-coated wells; type: cell-based, Staphylococcus aureus; design: Reduction of MRSA biofilm viability: dose or concentration left out as unconfirmed; details: for Reduction of biofilm viability: 512 and 1024 mg/L, 24 h treatment; for Comparative anti-biofilm activity: MRSA and MSSA biofilms, compared with the other agents evaluated
Method: Biofilms were formed as previously described to mimic in vivo conditions that promote formation of coagulase-mediated biofilms.[16] Briefly, microtitre plates or glass-bottom culture dishes (MaTek Co., USA) were coated with either 20% (v/v) or 100% (v/v) human plasma, respectively, and inoculated with S. aureus at an OD600 ∼0.2. After 1 h, non-adherent bacteria were aspirated, replaced with fresh RPMI-1640 and biofilms allowed to form over 24 h at 37 °C. Pre-formed biofilms were treated for 24 h with either 5HE-C14-TMA, C14-TOA or C14-TTA or a positive control [ethanol at 40% (v/v)]. Biofilm viability was measured by (i) resazurin-conversion assay (in microtitre wells), or (ii) live/dead imaging (glass-bottom dishes). Conversion of the non-fluorescent redox dye, resazurin into the fluorescent resorufin was performed as described previously.[16] A 44 μM resazurin (Sigma-Aldrich, UK) solution in RPMI-1640 was added to an equal biofilm volume and incubated for 1 h at 37 °C. Fluorescence (excitation 544 nm, emission 590 nm) was quantified using a Perkin Elmer 2030 Multilabel Reader Victor^TM X3. Biofilms were stained with SYTO9 Green (at 13.36 μM) and propidium iodide (at 80 μM) (Molecular Probes®) for 1 h prior to washing. Four representative images at ×40 and ×100 were obtained per experimental group, per experiment using a Zeiss LSM 510 META confocal microscope. Each experiment was repeated at least three times. Fluorescence intensity was quantified using Image J1 software (http://imagej.net/Welcome).

S. aureus strain BH1CC = test: MIC by broth microdilution (CLSI), strain BH1CC; type: cell-based; details: Staphylococcus aureus; BH1CC (MRSA), Mueller–Hinton broth
Method: as §1, §2

S. aureus strain USA300 = test: MIC by broth microdilution (CLSI), strain USA300; type: cell-based; details: Staphylococcus aureus; USA300 (MRSA), Mueller–Hinton broth
Method: as §1, §2

S. aureus [7] = details: cited from earlier work
[8] = MTT cell viability assay, HaCaT; type: cell-based, Human; details: human, HaCaT keratinocyte cells; HaCaT, MTT, 24 h
Method: (§3) Human keratinocyte (HaCaT) cells were cultured in DMEM supplemented with 10% (v/v) FBS. Primary human umbilical vein endothelial cells (HUVECs) were cultured in EGM™-2 Bulletkit (Lonza) medium. HaCaT and HUVECs were harvested using TrypLE^TM Express (Gibco). Cells were seeded in microtitre plates at 3 × 10^5 cells/mL and incubated for 24 h at 37 °C with an antimicrobial compound ([…]) or Triton X100 at 1% (v/v). After removing the medium, cells were incubated with 500 mg/L MTT (Sigma-Aldrich) for 4 h. The crystals formed were solubilized with DMSO. Absorbance was recorded at 560 nm and the CC50 was determined.

[9] = system: Human keratinocyte (HaCaT) cells; test: MTT cell viability assay, HaCaT; type: cell-based; details: HaCaT cells
Method: as §3

[10] = MTT cell viability assay, HUVEC; type: cell-based, human; details: human, primary HUVECs (umbilical vein endothelial cells); HUVEC, MTT, 24 h
Method: as §3

[11] = system: Primary human umbilical vein endothelial cells (HUVECs); test: MTT cell viability assay, HUVEC; type: cell-based; details: HUVECs
Method: as §3

[12] = system: S. aureus strain USA300 LAC; test: Membrane permeabilization: ATP release; type: cell-based, Staphylococcus aureus; details: 0-100 μM, 1 h
Method: (§4) Membrane permeabilization was evaluated by quantifying (i) ATP release,[22] and (ii) the uptake of propidium iodide.[22]S. aureus strain USA300 LAC was grown overnight in CYGP medium,[9] washed with sodium phosphate buffer (100 mM, pH 7), re-suspended to OD600 0.1 and incubated at 37 °C with a range of concentrations of each compound for 1 h. Nisin (0.6 μM) was used as a positive control. Cell-free supernatants were assayed for ATP using the Cell Titre-Glo kit (Promega). Staphylococcal cells were re-suspended in 100 mM sodium phosphate buffer (pH 7) containing propidium iodide (10 mg/L), incubated in the dark at room temperature for 10 min. After washing, propidium iodide fluorescence (excitation: 575 nm; emission 630 nm) was determined.

[13] = system: S. aureus strain USA300 LAC; test: Membrane permeabilization: propidium iodide uptake; type: cell-based, Staphylococcus aureus; details: 0-100 μM, 1 h
Method: as §4

S. aureus USA300 LAC = test: Bactericidal activity (time-kill, viable counts); type: cell-based, Staphylococcus aureus; details: 8 × MIC, planktonic USA300
Method: S. aureus USA300 LAC was grown overnight in LB medium, diluted 250-fold and grown to an OD600 0.5. Cells were diluted to 1 × 10^6 per mL in challenge medium (LB plus 5HE-C14-TMA, C14-TOA or C14-TTA at 8 × MIC). Samples were removed and viable counts determined at 30 min intervals for the first hour followed by hourly sampling. The CLSI defines a compound as bactericidal if it reduces the starting inoculum colony count by at least 99.9% (3-logs).

Compound: CCCCCCCCCC(=O)C1C(=O)NC(CCO)C1=O (centres unmarked) [5HE-C10-TMA, 5-hydroxyethyl-3-decanoyltetramic acid]
- Toxicity in murine arthritis model (S. aureus [1]): neither C14-TOA nor 5HE-C10-TMA were toxic
- Effect on frequency and severity of arthritis (S. aureus [1]): inactive
- Selection for resistance on serial passage (S. aureus [2]): did not select for resistance
- Activity against S. aureus biofilms (S. aureus biofilms [3]; at 200 mg/L): inactive
- Efficacy against S. aureus biofilms (S. aureus biofilms [3]): no efficacy

Compound: CCCCCCCCCCCCCC(=O)C1=C(O)OCC1=O [C14-TOA, 3-tetradecanoyltetronic acid]
- pKd (staphylococcal membrane): 5.70
- Toxicity in murine arthritis model (S. aureus [1]): neither C14-TOA nor 5HE-C10-TMA were toxic
- Effect on frequency and severity of arthritis (S. aureus [1]): significantly reduced the frequency and severity of arthritis and joint destruction
- Numbers of viable staphylococci in the kidneys (S. aureus [1]; murine S. aureus infection model): did not, however, reduce
- MIC [4]: 4 µg/mL (≈ 12.9 µM)
- MIC ([4]; Staphylococcus aureus): 2 to 4 µg/mL (≈ 6.44 to 12.9 µM)
- MIC (S. aureus strain BH48): 12.5 µM and 4 µg/mL
- CC50 (Haemolysis assay): > 2.05 mM and > 667 µg/mL
- pIC50 [5]: 5.52
- MIC (S. aureus strain SH1000): 12.5 µM and 4 µg/mL
- Iron chelation (Iron chelation): do not chelate iron
- Reduction of biofilm viability (S. aureus biofilms [6]; resazurin): 2.5–3 fold
- Comparative anti-biofilm activity (S. aureus biofilms [6]): far less effective
- MIC (S. aureus strain BH1CC): 12.5 µM and 4 µg/mL
- MIC (S. aureus strain USA300): 12.5 µM and 4 µg/mL
- MIC (S. aureus [7]; towards S. aureus): 25 µM (≈ 7.76 µg/mL)
- CC50 at 24 h [8]: 257 µM and 80 µg/mL
- Selectivity index (SI, CC50/MIC) [9]: 20
- CC50 at 24 h [10]: 28 µM and 9 µg/mL
- Selectivity index (SI, CC50/MIC) [11]: 2.3

Compound: CN[C@H](CC(C)C)C(=O)N[C@H]1C(=O)N[C@@H](CC(N)=O)C(=O)N[C@H]2C(=O)N[C@H]3C(=O)N[C@H](C(=O)N[C@H](C(=O)O)c4cc(O)cc(O)c4-c4cc3ccc4O)[C@H](O)c3ccc(c(Cl)c3)Oc3cc2cc(c3O[C@@H]2O[C@H](CO)[C@@H](O)[C@H](O)[C@H]2O[C@H]2C[C@](C)(N)[C@H](O)[C@H](C)O2)Oc2ccc(cc2Cl)[C@H]1O [vancomycin, reference compound]
- Reduction of MRSA biofilm viability (S. aureus biofilms [6]; MRSA biofilm, resazurin): 3.5–4 fold

Compound: CCCCCCCCCC(=O)C1C(=O)CNC1=O (centres unmarked) [C10-TMA, reference compound]
- Antibacterial activity after removal of the 5-hydroxyethyl moiety of 5HE-C10-TMA (S. aureus [7]): did not reduce antibacterial activity

Compound: CCCCCCCCCC(=O)CC(=O)N[C@H]1CCOC1=O [3-oxo-C12-HSL, N-(3-oxododecanoyl)-L-homoserine lactone, reference compound]
- MIC (S. aureus [7]; S. aureus growth): 100 μM and 30 mg/L

Compound: CCCCCCCCCCCCCC(=O)C1=C(O)SCC1=O [C14-TTA, 3-tetradecanoylthiotetronic acid]
- MIC [4]: 4 µg/mL (≈ 12.3 µM)
- MIC ([4]; Staphylococcus aureus): 2 to 4 µg/mL (≈ 6.13 to 12.3 µM)
- MIC (S. aureus strain BH48): 12.5 µM and 4 µg/mL
- Extracellular ATP levels (ATP release relative to nisin 0.6 μM) [12]: least active
- CC50 (Haemolysis assay): 470 µM and 153 µg/mL
- Propidium iodide fluorescence (uptake relative to nisin 0.6 μM) [13]: least active
- MIC (S. aureus strain SH1000): 12.5 µM and 4 µg/mL
- Iron chelation (Iron chelation): do not chelate iron
- Reduction of biofilm viability (S. aureus biofilms [6]; resazurin): 2.5–3 fold
- Comparative anti-biofilm activity (S. aureus biofilms [6]): far less effective
- MIC (S. aureus strain BH1CC): 12.5 µM and 4 µg/mL
- MIC (S. aureus strain USA300): 12.5 µM and 4 µg/mL
- CC50 at 24 h [8]: 26 µM and 8.3 µg/mL
- Selectivity index (SI, CC50/MIC) [9]: 2
- Bactericidal activity (CLSI: at least 3-log reduction) (S. aureus USA300 LAC): bactericidal

Compound: CCCCCCCCCC(=O)N[C@@H](Cc1c[nH]c2ccccc12)C(=O)N[C@H](CC(N)=O)C(=O)N[C@@H](CC(=O)O)C(=O)N[C@@H]1C(=O)NCC(=O)N[C@@H](CCCN)C(=O)N[C@@H](CC(=O)O)C(=O)N[C@H](C)C(=O)N[C@@H](CC(=O)O)C(=O)NCC(=O)N[C@H](CO)C(=O)N[C@@H]([C@H](C)CC(=O)O)C(=O)N[C@@H](CC(=O)c2ccccc2N)C(=O)O[C@@H]1C [daptomycin, reference compound]
- Comparative anti-biofilm activity (S. aureus biofilms [6]): most active antimicrobial evaluated
